Test results from patent US20240139139A1, “COMPOSITION FOR PREVENTING OR TREATING CEREBROVASCULAR DISEASE” (TOKYO METROPOLITAN INSTITUTE OF MEDICAL SCIENCE, priority 2021, published 2024).

Columns and labels:
[1] = test system: cerebral infarction models of wild-type mice; test: Long-term neurological symptoms by corner test and cylinder test, 15-HETrE intravenous; assay type: in vivo, mouse; details: 600 ng intravenously 24, 48, 72 hours, up to 28 days, FIG. 16, 17
Procedure: (§1) To identify lipids associated with pathological conditions of cerebral infarction, a comprehensive analysis was performed on lipids extracted from the cerebral tissue of a mouse model of cerebral infarction. The mouse model of cerebral infarction was prepared according to the following procedure. An embolization suture with a silicone-coated tip (Ethilon (suture gauge number 7-0), Johnson & Johnson) was inserted through the common carotid artery of 8 to 24-week-old C57BL/6N mice. Cerebral temperature was maintained at 36° C., cerebral blood flow was monitored by Doppler blood flowmeter ALF21 (ADVANCE CO., LTD.), and the embolization suture was placed at the origin of the middle cerebral artery so that the cerebral blood flow in the perfused area of the middle cerebral artery was maintained at 20 to 40% of the steady state. By removing the embolization suture after 60 minutes of ischemia, the cerebral tissue was reperfused. As a control, sham-operated mice were prepared.
(§2) Cerebral infarction models of wild-type mice were prepared (n=10) by the same procedure as in 1 above. […] The cerebral infarct volume 28 days after ischemia-reperfusion was calculated by the procedure in 6 above.
In addition, long-term neurological symptoms were evaluated over time up to 28 days after ischemia-reperfusion by a corner test and a cylinder test (Nat. Med., 2017 June; 23(6):723-732). […]

[2] = test system: cerebral infarction models of wild-type mice; test: Cerebral infarct volume 28 days after ischemia-reperfusion in wild-type mouse model, 15-HETrE intravenous; assay type: in vivo; details: 600 ng intravenously 24, 48, 72 hours, p<0.05 vs vehicle, FIG. 15
Procedure: as §1, with “By removing the embolization suture after 60 minutes of ischemia, the cerebral tissue was reperfused. As a control, sham-operated mice were prepared.” left out
(§3) Sections were prepared from the cerebral tissue 4 days after ischemia-reperfusion and immunohistochemistry was performed using anti-MAP2 antibody by the same procedure as in 2 above. The cerebral infarct volume was calculated based on the region that was not stained by the anti-MAP2 antibody, which is regarded as the cerebral infarct area.
as §2

[3] = test system: neurons around the infarct area; test: RNA-seq and GO analysis of neurons around the infarct area, 15-HETrE intravenous; assay type: in vivo, mouse; details: wild-type mice; 600 ng intravenously 24, 48, 72 hours; day 4; RNA-seq vs vehicle; FIG. 18
Procedure: Cerebral infarction models of neuron-specific Padi4cKO mice and wild-type mice were prepared by the same procedure as in 1 above. At 4 days after ischemia-reperfusion, the brain was isolated after transcardial perfusion with artificial cerebrospinal fluid. The brain was sliced into 300 lam thick sections and homogenized after treated with pronase. Neurons around the infarct area were isolated using anti-Thy1.2 Antibody (BioLegend) by a cell sorter (BD FACSAria III). Single-cell RNA-seq analysis was performed using Chromium Next GEM Single Cell 3′ Kit (10× Genomics) and DNB-seq (MGI Tech), and the results of cell population clustering were visualized as a UMAP plot using Loupe Browser (10× Genomics). A gene ontology (GO) analysis was also performed for each cluster using g:profiler (https:/biit.cs.ut.ee/gprofiler/gost).
Cerebral infarction models of wild-type mice was prepared by the same procedure as in 1 above. At 24, 48, and 72 hours after ischemia-reperfusion, 15-HETrE (600 ng)/phosphate buffer was administered intravenously through the orbital venous plexus. Neurons around the infarct area were isolated from mice on day 4 after ischemia-reperfusion by the procedure in 7 above, and RNA-seq analysis was performed. The analysis results were visualized as a volcano plot using Loupe Browser, and GO analysis was performed using g:profiler. […]

[4] = test system: cerebral infarction models of wild-type mice; test: Neurological symptoms (Bederson score) in wild-type mouse cerebral infarction model, 15-HETrE intraperitoneal; assay type: in vivo; details: 600 μg per mouse intraperitoneally 24 hours after ischemia-reperfusion, vs vehicle, FIG. 8
Procedure: as §1
(§4) Then, cerebral infarction models of PLA2g2e knockout mice (Sato H., et al., 2014, Cell Metab, 20: 119-132) and wild-type mice were prepared by the same procedure as in 1 above (n=12, respectively), and neurological symptoms after ischemia-reperfusion were assessed over time in accordance with the neurological symptoms assessment score reported by Bederson, et al. (Bederson J B, et al., 1986, Stroke, 17: 472-476). […]

[5] = test system: cerebral infarction model of PLA2g2e knockout mice; test: Cerebral infarct volume (anti-MAP2 staining) in PLA2g2e knockout mouse cerebral infarction model, oral lipid; assay type: in vivo; details: 1 mg orally 24, 48 and 72 hours after ischemia-reperfusion, 4 days after ischemia-reperfusion, FIG. 10
Procedure: as §1, with “prepared. […]” for “prepared.”
as §3

PADI4-positive neurons = test: Number of PADI4-positive neurons in the peri-infarct area (immunohistochemistry); assay type: in vivo, mouse; details: PLA2g2e knockout mice; 1 mg orally 24, 48, 72 hours; 4 days after ischemia-reperfusion; cells per visual field; FIG. 12
Procedure: Then, mice were perfused and fixed transcardially using a 4% paraformaldehyde solution 7 days after ischemia-reperfusion, and the brains were isolated. From the isolated cerebral tissue, sections of 1 mm thickness were prepared, embedded in paraffin, thinly sliced to 5 μm, and immunohistochemistry was performed according to an ordinary method. Anti-MAP2 antibody (Sigma-Aldrich, Cat. #M4403) (1:1000 dilution) was used as a primary antibody, and anti-mouse IgG antibody derived from goat (Jackson Immuno Research Laboratories, Inc., Cat. #115-005-003) (1:300 dilution) was used as a secondary antibody. In the figure, the scale bar indicates 1 mm, and the round linear object is an air bubble that was mixed in during the preparation of the specimen. The ischemic necrotic region (unstained region) in the cerebral infarction model of PLA2g2e knockout mice has expanded compared to the cerebral infarction model of wild-type mice. […]
Also, sections were prepared from the cerebral tissue 4 days after ischemia-reperfusion and PADI4-positive neurons were detected by immunohistochemistry by the same procedure as in 2 above, and the number of cells per visual field (approximately 0.1 square millimeter) in the pen-infarct area was counted. […]

[6] = test system: cerebral infarction model of PLA2g2e knockout mice; test: Neurological symptoms over time in PLA2g2e knockout mouse cerebral infarction model, oral lipid; assay type: in vivo; details: 1 mg orally 24, 48, 72 hours, vs vehicle or stearic acid, p<0.001, FIG. 11
Procedure: as §1, with “By removing the embolization suture after 60 minutes of ischemia, the cerebral tissue was reperfused. As a control, sham-operated mice were prepared.” left out
as §4
In addition, neurological symptoms after ischemia-reperfusion were evaluated over time according to the same procedure as in 2 above.

[7] = in vivo, po; cited from earlier work
[8] = test system: promoter region of the mouse Padi4 gene; test: Padi4 promoter luciferase reporter assay in Neuro2A cells; assay type: cell-based; details: lipids 10 μM, 24 hours, relative to untreated cells = 1, FIG. 9
Procedure: To identify the lipids inducing PADI4 expression, a luciferase reporter vector was prepared by incorporating the promoter region (SEQ ID NO: 5) of the mouse Padi4 gene (NCBI database accession number: NM_011061) into pGL3-Basic (Promega). The reporter vector was transfected into Neuro2A cells using PEI Max (Polysciences), and reporter cells were obtained. After reporter cells were cultured in media supplemented with lipids (10 μM final concentration) for 24 hours, the luciferase activity was measured with Luciferase Assay System (Promega). […]

Structure (SMILES)	long-term neurological symptoms (corner test and cylinder test) [1]	cerebral infarct volume [2]	expression of genes associated with neural tissue formation, neurite formation and synapse formation [3]	neurological symptoms (Bederson neurological symptoms assessment score) [4]	cerebral infarct volume [5]	number of PADI4-positive neurons around the cerebral infarct area (PADI4-positive neurons)	neurological symptoms after ischemia-reperfusion [6]	migration into and accumulation in cerebral tissue [7]	Padi4 promoter inducing activity (luciferase activity) [8]
CCCCC[C@H](O)/C=C/C=C\C/C=C\CCCCCCC(=O)O [15-HETrE, 15-hydroxyeicosatrienoic acid]	improved neurological symptoms up to 28 days	decreased the cerebral infarct volume	highly expressed	improved					
CCCCC/C=C\C/C=C\C/C=C\CCCCCCC(=O)O [DGLA, dihomo-γ-linolenic acid]					decreased the cerebral infarct volume	increased	improvement in neurological symptoms	migrate well into the cerebral tissue and are accumulated in the cerebral tissue even by oral intake	induce Padi4 promoter activity
CCCCCCCCCCCCCCCCCC(=O)O [stearic acid, reference compound]					did not change the cerebral infarct volume				
